What was measured:
[1] = test system: diabetic db/db mouse model; test: Long-term glucose-lowering after multiple doses; assay type: in vivo; conditions: db/db mice, kidney injury marker after multiple administration 10 nmol/kg
[2] = test system: diet-induced obese (DIO) mice; test: Weight loss in diet-induced obese; assay type: in vivo, mouse; conditions: 10 nmol/kg
[3] = Pharmacokinetics; assay type: in vivo, rat; conditions: SD male rats, single dose 0.05 mg/kg, plasma, LC-MS/MS, WinNonlin, mean n=3
[4] = test system: diabetic db/db mouse model; test: Acute glucose-lowering after single dose in db/db mice; assay type: in vivo

Substance: Semaglutide
- serum creatinine (Scr) [1]: significantly reduced
- urinary albumin levels [1]: significantly reduced
- fat index ([2]; multiple administrations): reduced
- body weight reduction ([2]; multiple administrations over 21 days, n=5): 21.54%
- half-life (T1/2) [3]: 8.17 h
- mean residence time (MRT0-t), 0-[…] [3]: 14.21 h
- time up to which the decrease of non-fasting blood glucose persisted ([4]; single dose 10 nmol/kg): 24 h
- lowest non-fasting blood glucose level ([4]; single dose 10 nmol/kg subcutaneous, mean±SD, n=6, SD): 15.57 ± 5.16 mmol/L
- acute glucose-lowering effect compared with model group ([4]; single dose 10 nmol/kg, non-fasting glucose 0-120 hours): comparable glucose-lowering effects
